In brackets after ≈: the same amount, converted by molar mass. Read-outs that look alike come from different tables or passages of the source.
Columns and labels:
Neisseria gonorrhoeae = experiment: Gonococcal growth inhibition (multiplication assay); type: cell-based
Method: Gonococcal growth inhibition assays were performed by the method of Anderson R. A., et al., J. Androl., 21: 862-875; 2000. Briefly, Neisseria gonorrhea from local uncomplicated cases of gonorrhea were isolated (verified by Gram stain, oxidase reactivity and sugar fermentation). The titer of log-phase cultures were adjusted by dilution in GC broth to 0.5 McFarland standard (approximately 10^8 colony forming units per ml). This was diluted 1:10 with broth that contained no additions (control), and each of serial 1:10 dilutions of test agent, ranging from 1 mg/ml to 1.0 μg/ml. The cultures were incubated at 37° C. for four hours. Four serial 1:10 dilutions were made in GC broth, and a portion of each dilution was inoculated onto GC agar plates. The plates were incubated overnight, and resultant gonococcal colonies were counted under bright-field microscopy. Data for each concentration of suramin were expressed as the number of colony-forming units (CFU) per ml of the original log-phase bacterial suspension.

HIV-1 Ba-L = experiment: C-MAGI/Ba-L assay (viral entry inhibition, BaL); type: cell-based; settings: for IC50: Human immunodeficiency virus 1, BAL
Method: The C-MAGI/Ba-L assays were carried out with MAGI-CCR-5 cells. The cell line was maintained in DMEM medium containing 10% FBS, 100 U/ml penicillin, 300 μg/mL glutamate and selection antibiotics as indicated above. Before assay, the cells were placed in 96 well flat tissue culture plates at 1×10^4 cells per well, and incubated overnight in the absence of antibiotics. The next day, medium was removed, and virus and compound (100 μL virus (HIVBa-L)+100 μL compound) were added. The cultures were incubated for 2 hours to facilitate virus attachment. After this incubation, the medium is removed from the wells, replaced with fresh compound-free medium, washed twice and finally incubated at 37° C. for 2 days in fresh medium. Following incubation, the medium was removed and induction of β-galactosidase enzyme activity was detected by chemiluminescence. β-galactosidase activity was detected using a chemiluminescence substrate, following the manufacture's instructions (Tropix). The TC50 and IC50 are determined using linear regression and a therapeutic index or antiviral index calculated. The results of this assay are provided herein.

rabbit sperm = experiment: Rabbit contraceptive efficacy, intravaginal application; type: in vivo
Method: Semen was collected from New Zealand White (NZW) male rabbits with the aid of an artifical vagina, pooled and adjusted with a modified Tyrode's albumin lactate pyruvate (TALP) medium to 50 million motile sperm per milliliter. Ovulation was induced in females by injection of 200 IU of human chorionic gonadotropin (hCG) intravenously. Under the ex-vivo (in-vitro) mixing protocol, sperm were incubated with indicated suramin test compounds in a tube for 15 minutes at 37° C. prior to insemination (0.5 mL) as described in Anderson R. A., et al. J. Androl., 21: 862-875 (2000). […] Sperm-compound contact, in this case, took place in vivo, inside the vagina. Insemination and administration of the compound was performed with a flexible, 12 cm long polyurethane catheter. The main endpoints for both protocols were the number of implantation sites counted 11 days after insemination and pregnancy rate. Such sites were counted by visual inspection of the tubes.

[1] = system: HIV-1-infected SupT1 cells (strain IIIB); experiment: Cell-to-cell transmission (CTC) assay; type: cell-based; settings: for IC50: Human immunodeficiency virus 1, IIIB, SUP-T1
Method: HIV-1-infected SupT1 cells (strain IIIB), killed by prior exposure to mitomycin C (200 μg/mL) for 1 hour at 37° C., were incubated with each agent and P4-R5 (MAGI) cells for 2 hours at 37° C. Following the incubation period, cells were washed and provided with new media. Successful transmission and subsequent replication events were quantitated using Galacto-Star assay 48 hr post-infection. Infected cells were expressed as a percent of cells infected after mock exposure. In each assay, triplicate wells were tested for each concentration. The results of this assay are provided herein.

[2] = system: Chlamydia trachomatis (serotype E/UW-5/CX); experiment: Chlamydia multiplication inhibition; type: cell-based
Method: Chlamydia multiplication inhibition was performed according to Cooper M. D. et al., J. Gen. Microbiol., 136: 1109-1115 (1990). Prior to experimentation, cryo-preserved Chlamydia trachomatis (serotype E/UW-5/CX) were quickly thawed (37° C.) and suspended by mild sonication. Serial 1:10 dilutions of the bacterial suspension were made, ranging from 10^−1 to 10^−7.
HeLa monolayers (on coverslips) were inoculated with 100 μl of the different dilutions of chlamydia (elementary bodies), in the presence or absence of test agent. The suramin compound was tested at 0.1, 1.0, 10, 100 and 1000 μg/ml. After 1 hour, the monolayers were washed to remove free chlamydia and test agent, and they were incubated for 48 hours.
Medium was removed, and the HeLa monolayers were fixed in methanol, washed, and treated with Kallsted Chlamydia Culture Confirmation fluorescein-conjugated Monoclonal Antibody. Reaction of labeled antibody with the cells was carried out for 30 minutes at room temperature (i.e., 25° C.) (no light) in a humidified chamber. The cells were washed with water; a drop of mounting medium is placed on a glass slide, and the coverslip was applied. Inclusions due to chlamydial infection were visualized with a fluorescent microscope as green fluorescence. Data was reported as the number of inclusion forming units per ml of undiluted chlamydial titer, and were adjusted to control values of 2.6×10^7 IFU/ml for control cultures (no test agent) in each experiment. […] After logarithmic transformation of all data, dose-response curves were created with curve-fitting (TableCurve 2D, version 3.02; Jandel Scientific) software.

sperm = experiment: Sander Cramer sperm immobilization test; type: cell-based
Method: The Sander Cramer test was used to determine the effect on sperm immobilization as described in Sander F V and Cramer S D., Hum. Fertil. 6: 134-153 (1941). This test may be used to evaluate the sperm-immobilizing effectiveness of contraceptive compositions. Serial dilutions of each test composition were added to semen adjusted to a designated number, e.g., 60 million of motile sperm per milliliter at room temperature (i.e., 25° C.). The end point is the greatest dilution at which all of the sperm are immobilized within 20 seconds. Results are expressed as minimum effective concentration in milligrams per milliliter.

In the case of `Cc1ccc(C(=O)Nc2ccc(S(=O)(=O)O)c3cc(S(=O)(=O)O)cc(S(=O)(=O)O)c23)cc1NC(=O)c1cccc(NC(=O)Nc2cccc(C(=O)Nc3cc(C(=O)Nc4ccc(S(=O)(=O)O)c5cc(S(=O)(=O)O)cc(S(=O)(=O)O)c45)ccc3C)c2)c1` [Suramin, 8,8′-(carbonylbis(imino-3,1-phenylenecarbonylimino(4-methyl-3,1-phenylene)carbonylimino))bis-1,3,5-naphthalene trisulfonic acid], the “Potency, Gonococcus (GC) Multiplication” value (Neisseria gonorrhoeae) is reported as “Moderate”, the “inhibition of GC growth (multiplication assay)” value (Neisseria gonorrhoeae; 1 mg/mL) is reported as “completely inhibited GC growth” and the “dose-response of GC growth” value (Neisseria gonorrhoeae; 1-1000 μg/mL) is reported as “no clear dose-response”. The inhibition at 1000 µg/mL (Neisseria gonorrhoeae; Neisseria gonorrhoeae, 1 mg/mL, read-out: inhibition of GC multiplication) was 100%, the “Potency, HIV-1 MAGI-Bal” value (HIV-1 Ba-L) was “High” and the IC50 (HIV-1 Ba-L; HeLa, 2 h, read-out: IC50, Cell-Free Strains BaL, CD4/coreceptor expressing HeLa cells, incubation 2 hours) was 5.5 µg/mL (≈ 4.24 µM). The IC50 (HIV-1 Ba-L; 2h-incubation, read-out: IC50 against Bal) was 0.39 µg/mL (≈ 0.301 µM), the “inhibition (contraceptive), Vaginal Application” value (rabbit sperm; 1.25% in Replens) was 100% inhibition and the “inhibition, Vaginal Application” value (rabbit sperm; 2%) was 44% at 2%. The “inhibition, Vaginal Application Combo” value (rabbit sperm; 2% suramin + 2% sorbitan mono laurate or 0.1% N-9) was 100% inhibition at, the “reduction in PR” value (rabbit sperm; 5%, intravaginal administration) was 75% inhibition and the “Potency, Contraception, rabbit inseminated sperm (Vaginal Application)” value (rabbit sperm; rabbit, in vivo) was “Moderate”. For the same compound, the “Potency, Vaginal Application Combo” value (rabbit sperm; rabbit, in vivo) was “High”, the “Potency, Vaginal Application, Replens” value (rabbit sperm; rabbit, in vivo) was “High” and the “Potency, HIV-1 CTC” value [1] was “High”. For the same compound, the IC50 ([1]; CD4-dependent cell-to-cell transmission, API, read-out: IC50 CTC assay) was 93.5 µg/mL (≈ 72.1 µM), the IC50 ([1]; not API (Table 8: 2% suramin in Replens), read-out: IC50 CTC, second value beside API) was 9.6 µg/mL (≈ 7.4 µM) and the “Potency, Chlamydia (CT) Multiplication” value [2] was “High”. The “inhibition of CT multiplication” value ([2]; 2 mg/mL) was “inhibition was essentially complete”, the titer ([2]; 2 mg/mL, control titer 1×10^−5) was 0.08×10^−5 and the inhibition at 100 µg/mL ([2]; Chlamydia trachomatis, read-out: inhibition of CT multiplication) was 75%. The inhibition at 2000 µg/mL ([2]; Chlamydia trachomatis, 2 mg/mL, read-out: inhibition of CT multiplication) was 100%, the IC50 ([2]; Chlamydia trachomatis, read-out: IC50 Chlamydia (CT) Multiplication) was 28 µg/mL (≈ 21.6 µM) and the sperm-immobilizing activity (sperm; 20 mg/mL) was “no significant sperm-immobilizing activity”. The “sperm motility in Sander Cramer test” value (sperm; 10 and 5 mg/mL) was “all spermatozoa from samples were motile” and the “Potency, Motility (Sander Cramer, Motility, CASA)” value (sperm; highest concentration = 25 mg/mL) was “None”.

From patent publication US8552064B2, “Suramin and derivatives thereof as topical microbicide and contraceptive” (Eastern Virginia Medical School, priority 2005, dated 2013)
